Assay results as given in patent US20250127751A1, “Traditional Chinese Medicine Compound Preparation for Tumors and Application thereof” (priority 2023, published 2025).
“And” between values parts separate entries of the source, which are not always exact repeats. Identical values can stand only once. Like-named read-outs stand apart in the source and are kept apart here.

Tests used:
Assay type in all cases: cell-based, human
NB4 cells [1] = details: 24 h
Description: The ANNEXIN V-FITC/PI double-staining method is established based on a principle of asymmetric loss of cell membrane in apoptotic cells, that is, externalization of phosphatidylserine. Determination of results: normal live cells: annexin V^−PI^−; apoptotic cells: annexin V^+PI^−, and necrotic or late apoptotic cells: annexin V^+PI^+.
NB4 cells at the logarithmic growth phase were seeded at a density of 1×10^5 cells/well into a 6-well plate, and dosed 24 h later. The proapoptotic effect of each group was detected according to the dosing methods in Table 1. The cells were collected 24 h after drug dosing and detected on a flow cytometer according to the operating procedure of an ANNEXIN V-FITC/PI apoptosis detection kit (purchased from Solarbio). The experiment was repeated three times.

NB4 cells [2] = details: 10 d; doses of Table 2 (alone 30 μM, pairs 15 μM each, DCI 10 μM each)
Description: NB4 cells at the logarithmic growth phase were seeded at a density of 2×10^5 cells/well into a 6-well plate, and dosed 24 h later. […] NB4 cells cultured for 10 d were centrifuged at 110 g for 3 min, smeared, fixed with methanol, and air dried naturally. Then, the cell smear was stained with Wright's-Giemsa for morphological observation. The experiment was repeated three times.

NB4 cells [3] = details: single compound 30 μM; dosed 10 d
Description: When normal neutrophils or differentiated cells are stimulated, the production of intracellular superoxide anions increases. NBT receives hydrogen from NADPH in the differentiated cells and reduces into insoluble blue black or blue purple particles—formazane particles.
NB4 cells at the logarithmic growth phase were seeded at a density of 2×10^5 cells/well into a 6-well plate, and dosed 24 h later. […] 24 h after the last dose, the culture medium was discarded, and the cells were washed twice with PBS. 500 μL of a 0.1% NBT solution (purchased from Sigma and prepared from PBS) containing 1 μg/ml of phorbol ester (PMA, purchased from Sigma) was added to each well, and the cells were incubated at 37° C. for 30 min, washed twice with PBS, and observed under a microscope. In a 400× magnification field, 200 cells were randomly counted from each specimen. Cells containing gray or black formazane particles in the cytoplasm were counted as NBT reduction positive cells, and the percentage of the reduction positive cells was calculated. The experiment was repeated three times.

CD33 = test system: CD33
Description: (§1) In an immunological marker examination of APL cells, CD11b is negative and CD33 is positive. The surface antigen CD33 is associated with the degree of cellular immaturity, while the surface antigen CD11b is associated with the degree of cellular maturity, High expression of CD11b, as an adhesion molecule on the cell surface, may be a marker of cell differentiation maturation.
(§2) NB4 cells at the logarithmic growth phase were seeded at a density of 2×10^5 cells/well into a 6-well plate, and dosed 24 h later. […] 24 h after the last dosing, cells were collected, centrifuged to remove the culture medium, washed twice with precooled PBS, and resuspended in 100 μL PBS. APC (allophycocyanin) and BB515 labeled CD11b and CD33 monoclonal antibodies and corresponding isotype antibodies (both purchased from BD, USA) were added respectively. Following mixing, the cells were incubated at 4° C. for 30 min, filtered through a cell filter membrane, and then detected.

CD11b = test system: CD11b
Description: as §1, §2

[4] = single compound 30 μM, dosed 10 d

Compound | Apoptosis rate of NB4 cells (%) (NB4 cells [1]; single compound 20 μM) | Apoptosis rate of NB4 cells (%) (NB4 cells [1]; single compound 40 μM) | Morphology of NB4 cells (NB4 cells [2]) | NBT reduction positive rate in NB4 cells (%) (NB4 cells [3]) | Positive rate of CD33 expression in NB4 cells (%) (CD33; [4]) | Positive rate of CD11b expression in NB4 cells (%) (CD11b; [4]) | Positive rate of CD33 expression in NB4 cells (%) (CD33) | Positive rate of CD11b expression in NB4 cells (%) (CD11b)
Nc1ncnc2c1ncn2[C@@H]1O[C@H](CO)C[C@H]1O [CDY, Cordycepin] | 10.70 ± 3.54 | 19.39 ± 5.64 | no significant differences from the control group | 3.19% and 3.19 ± 2.09% | 37.14 ± 15.90 | 1.79 ± 1.42 | – | –
O=C1Nc2ccccc2/C1=C1/Nc2ccccc2C1=O [IDB, Indirubin] | 28.88 ± 11.51 | 31.38 ± 8.92 | – | 15.20% and 15.20 ± 4.10 % | – | – | 27.50 ± 16.67 | 26.42 ± 10.91
